Laboratory results from patent publication US3960877A, “N-monosubstituted-2,3-pyridinedicarboxamides, and related compounds” (priority 1974, dated 1976).

Tests used:
Type in all cases: in vivo
[1] = system: Cucumber; experiment: Preemergence herbicidal activity, % control of plant growth
Outline: (§1)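 Soil sprayed pre-emergence, right after sowing, at 16 lb/acre (≈2 wt% in acetone/alcohol). Scored visually at ~3 weeks vs untreated control as % growth control.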

[2] = system: Nutgrass; experiment: as above; conditions: pre-emergence, 504 h, 16 lb/acre, about 3 weeks
Outline: as §1

[3] = system: Lambsquarters; experiment: as above
Outline: as §1

[4] = system: Wild Oats; experiment: as above
Outline: as §1

[5] = system: Barnyard Grass; experiment: as above
Outline: as §1

[6] = system: Foxtail; experiment: as above
Outline: as §1

[7] = system: Cheatgrass; experiment: as above
Outline: as §1

[8] = system: Pigweed; experiment: as above
Outline: as §1

[9] = system: Crabgrass; experiment: as above
Outline: as §1

[10] = system: Yellow Rocket; experiment: as above; conditions: pre-emergence, 504 h, 16 lb/acre, about 3 weeks
Outline: as §1

[11] = system: Curled Dock; experiment: as above
Outline: as §1

[12] = system: Velvetleaf; experiment: as above; conditions: Abutilon theophrasti, pre-emergence, 504 h, 16 lb/acre, about 3 weeks
Outline: as §1

[13] = system: Alfalfa; experiment: as above
Outline: as §1

[14] = system: Corn; experiment: as above
Outline: as §1

[15] = system: Johnsongrass; experiment: as above
Outline: as §1

[16] = system: Snapbeans; experiment: as above; conditions: pre-emergence, 504 h, 16 lb/acre, about 3 weeks
Outline: as §1

[17] = system: Chickweed; experiment: as above; conditions: pre-emergence, 504 h, 16 lb/acre, about 3 weeks
Outline: as §1

[18] = system: Cucumber; experiment: Postemergence herbicidal activity, % control of plant growth; conditions: Cucumis sativus, post-emergence, 264 h, 8 lb/acre, about 11 days
Outline: (§2)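 Postemergence spray at 8 lb/acre onto soil and developing seedlings about 2 weeks after sowing; approx. 2% by weight solution in acetone and/or alcohol. Percent control estimated visually at approx. 11 days.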

[19] = system: Nutgrass; experiment: as above; conditions: post-emergence, 264 h, 8 lb/acre, about 11 days
Outline: as §2

[20] = system: Lambsquarters; experiment: as above; conditions: Chenopodium album, post-emergence, 264 h, 8 lb/acre, about 11 days
Outline: as §2

[21] = system: Wild Oats; experiment: as above; conditions: Avena fatua, post-emergence, 264 h, 8 lb/acre, about 11 days
Outline: as §2

[22] = system: Barnyard Grass; experiment: as above; conditions: Echinochloa crus-galli, post-emergence, 264 h, 8 lb/acre, about 11 days
Outline: as §2

[23] = system: Foxtail; experiment: as above; conditions: Setaria, post-emergence, 264 h, 8 lb/acre, about 11 days
Outline: as §2

[24] = system: Cheatgrass; experiment: as above; conditions: Bromus tectorum, post-emergence, 264 h, 8 lb/acre, about 11 days
Outline: as §2

[25] = system: Pigweed; experiment: as above; conditions: Amaranthus retroflexus, post-emergence, 264 h, 8 lb/acre, about 11 days
Outline: as §2

[26] = system: Crabgrass; experiment: as above; conditions: Digitaria sanguinalis, post-emergence, 264 h, 8 lb/acre, about 11 days
Outline: as §2

[27] = system: Yellow Rocket; experiment: as above; conditions: post-emergence, 264 h, 8 lb/acre, about 11 days
Outline: as §2

[28] = system: Curled Dock; experiment: as above; conditions: post-emergence, 264 h, 8 lb/acre, about 11 days
Outline: as §2

[29] = system: Velvetleaf; experiment: as above; conditions: Abutilon theophrasti, post-emergence, 264 h, 8 lb/acre, about 11 days
Outline: as §2

[30] = system: Alfalfa; experiment: as above; conditions: Medicago sativa, post-emergence, 264 h, 8 lb/acre, about 11 days
Outline: as §2

[31] = system: Corn; experiment: as above; conditions: Zea mays, post-emergence, 264 h, 8 lb/acre, about 11 days
Outline: as §2

[32] = system: Johnsongrass; experiment: as above; conditions: Sorghum halepense, post-emergence, 264 h, 8 lb/acre, about 11 days
Outline: as §2

[33] = system: Snapbeans; experiment: as above; conditions: post-emergence, 264 h, 8 lb/acre, about 11 days
Outline: as §2

[34] = system: Chickweed; experiment: as above; conditions: post-emergence, 264 h, 8 lb/acre, about 11 days
Outline: as §2

[35] = system: undesirable plants of both the monocotyledonous and the dicotyledonous species; experiment: Herbicidal activity, general
Excerpt: All of the 3-substituted compounds of the pyrido [3,2-d]pyrimidine-2,4(1H,3H)-dione and lumazine families made from intermediate amides produced by the method of this invention have an unexpectedly high order of herbicidal activity.
(§3) In using the compound, seeds of the types of plants set forth in Table II were sown in fresh soil. In the preemergence test the soil was sprayed with a solution of the test compound immediately after the seeds were planted, and before any noticeable growth developed. The solution was about a 2 percent by weight solution of the compound in acetone and/or alcohol. The compound was applied at the rate of 16 pounds per acre of soil surface.
(§4) Approximately 3 weeks after spray application, the herbicidal activity of the compound was determined by visual observation of the treated area in comparison with untreated control areas. These observations are reported below in Table II wherein the average activity rating is reported as the percent control of plant growth.
In the postemergence test the soil and developing plants were sprayed approximately 2 weeks after the seeds were sown. The compound was applied at the rate of 8 pounds per acre from about a 2 percent by weight solution of the test compound in acetone and/or alcohol. The postemergence herbicidal activity was measured in the same way as the preemergence activity; i.e. visual observation approximately 11 days after spraying, and expressed as the percent control of plant growth.

[36] = system: volunteer soybeans; experiment: Herbicidal activity at 16 pounds per acre, % control
Excerpt: as §3, §4

## O=c1[nH]c2cccnc2c(=O)n1C1CCCCC1 [3-cyclohexyl-pyrido[3,2-d] pyrimidine-2,4(1H,3H)-dione]
[1]; Cucumis sativus, pre-emergence, 504 h, 16 lb/acre, about 3 weeks
  pest or weed control at 17933.6 g/ha: 100%
[2]
  pest or weed control at 17933.6 g/ha: 100%
[3]; Chenopodium album, pre-emergence, 504 h, 16 lb/acre, about 3 weeks
  pest or weed control at 17933.6 g/ha: 100%
[4]; Avena fatua, pre-emergence, 504 h, 16 lb/acre, about 3 weeks
  pest or weed control at 17933.6 g/ha: 100%
[5]; Echinochloa crus-galli, pre-emergence, 504 h, barnyard grass, 16 lb/acre, about 3 weeks
  pest or weed control at 17933.6 g/ha: 100%
[6]; Setaria, pre-emergence, 504 h, 16 lb/acre, about 3 weeks
  pest or weed control at 17933.6 g/ha: 100%
[7]; Bromus tectorum, pre-emergence, 504 h, 16 lb/acre, about 3 weeks
  pest or weed control at 17933.6 g/ha: 100%
[8]; Amaranthus retroflexus, pre-emergence, 504 h, 16 lb/acre, about 3 weeks
  pest or weed control at 17933.6 g/ha: 100%
[9]; Digitaria sanguinalis, pre-emergence, 504 h, 16 lb/acre, about 3 weeks
  pest or weed control at 17933.6 g/ha: 100%
[10]
  pest or weed control at 17933.6 g/ha: 100%
[11]; pre-emergence, 504 h, 16 lb/acre, about 3 weeks
  pest or weed control at 17933.6 g/ha: 100%
[12]
  pest or weed control at 17933.6 g/ha: 100%
[13]; Medicago sativa, pre-emergence, 504 h, 16 lb/acre, about 3 weeks
  pest or weed control at 17933.6 g/ha: 100%
[14]; Zea mays, pre-emergence, 504 h, 16 lb/acre, about 3 weeks
  plant injury at 17933.6 g/ha: 90%
[15]; Sorghum halepense, pre-emergence, 504 h, 16 lb/acre, about 3 weeks
  pest or weed control at 17933.6 g/ha: 100%
[16]
  pest or weed control at 17933.6 g/ha: 100%
[17]
  pest or weed control at 17933.6 g/ha: 100%
[18]
  pest or weed control at 8966.8 g/ha: 100%
[19]
  pest or weed control at 8966.8 g/ha: 100%
[20]
  pest or weed control at 8966.8 g/ha: 100%
[21]
  pest or weed control at 8966.8 g/ha: 100%
[22]
  pest or weed control at 8966.8 g/ha: 100%
[23]
  pest or weed control at 8966.8 g/ha: 100%
[24]
  pest or weed control at 8966.8 g/ha: 80%
[25]
  pest or weed control at 8966.8 g/ha: 100%
[26]
  pest or weed control at 8966.8 g/ha: 100%
[27]
  pest or weed control at 8966.8 g/ha: 100%
[28]
  pest or weed control at 8966.8 g/ha: 100%
[29]
  pest or weed control at 8966.8 g/ha: 100%
[30]
  pest or weed control at 8966.8 g/ha: 30%
[31]
  plant injury at 8966.8 g/ha: 40%
[32]
  pest or weed control at 8966.8 g/ha: 100%
[33]
  pest or weed control at 8966.8 g/ha: 80%
[34]
  pest or weed control at 8966.8 g/ha: 100%
[35]; relative to 3-isopropyl-pyrido[3,2-d]pyrimidine-2,4(1H,3H)-dione, preemergence or postemergence
  effective application rate: substantially the same application rates, e.g., as similar or salt solutions in water, are effective

## CCn1c(=O)[nH]c2ncccc2c1=O [3-ethyl-pyrido[2,3-d]pyrimidine-2,4 (1H,3H)-dione]
[1]; 16 pounds per acre
  herbicidal activity/control: no significant control
[2]
  pest or weed control at 17933.6 g/ha: 90%
[3]; 16 pounds per acre
  herbicidal activity/control: no significant control
[4]; 16 pounds per acre
  herbicidal activity/control: no significant control
[5]; barnyardgrass, 16 pounds per acre
  herbicidal activity/control: no significant control
[6]; 16 pounds per acre
  herbicidal activity/control: no significant control
[7]; 16 pounds per acre
  herbicidal activity/control: no significant control
[8]; 16 pounds per acre
  herbicidal activity/control: no significant control
[9]; 16 pounds per acre
  herbicidal activity/control: no significant control
[10]
  pest or weed control at 17933.6 g/ha: 80%
[11]; 16 pounds per acre
  herbicidal activity/control: no significant control
[12]
  pest or weed control at 17933.6 g/ha: 80%
[13]; 16 pounds per acre
  herbicidal activity/control: no significant control
[14]; 16 pounds per acre
  herbicidal activity/control: no significant control
[15]; 16 pounds per acre
  herbicidal activity/control: no significant control
[16]
  pest or weed control at 17933.6 g/ha: 100%
[17]
  pest or weed control at 17933.6 g/ha: 80%
[36]
  percent control: 100%
[35]; in vivo
  order of herbicidal activity: comparatively low order
